Patent US3969523A, “Antiphlogistic pharmaceutical compositions containing a 1-(nicotinoyl or isonicotinoyl)-3-biphenylyl-alkanone-(2)” (Boehringer Ingelheim GmbH, priority 1973, dated 1976)

Experiments:
[1] = tested on: kaolin-induced edema of the hind paw of the rat; assay: Antiphlogistic activity: antiexsudative effect on kaolin-induced edema of the hind paw of the rat, oral; type: in vivo; details: p.o., dose leading to 35% reduction of swelling, graphically determined
Experimental: (§1) The antiphlogistic activity was tested to determine the antiexsudative effect on the kaolin-induced edema (see Hillebrecht in Arzneimittelforschung 4, 607 - 614 (1954) and the carrageenin-induced edema (see Winter in Proc. Soc. Exper. Biol. Med. 111, 544 (1962)) of the hind paw of the rat after oral administration of at least 3 doses to at least 10 animals per dose. The dose leading to a 35% reduction of the swelling (ED35) was graphically determined.

[2] = tested on: carrageenin-induced edema of the hind paw of the rat; assay: Antiphlogistic activity: antiexsudative effect on carrageenin-induced edema of the hind paw of the rat, oral; type: in vivo; details: p.o., dose leading to 35% reduction of swelling, graphically determined
Experimental: as §1

in vivo = details: rat, po
Experimental: The ulcerogenic activity in the rat was determined after oral administration of the compound for 3 times after 24 hours each time. The animals were killed 4 hours after that, and the number of the animals having an ulcer was recorded.

[3] = Peroral acute toxicity in rats; details: in vivo, po; rat; 50% died within 14 days; Litchfield and Wilcoxon
Experimental: The peroral acute toxicity of the compounds was determined on groups of 10 rats each.

**Q.** With `CC(C(=O)COC(=O)c1ccncc1)c1ccc(-c2ccccc2F)cc1` (stereo not shown) [A, 1-isonicotinoyloxy-3-(2'-fluoro-4"-biphenylyl)-butanone-(2)] as the compound, how does the ED35 [1] read?
**A.** Its ED35 is 14 mg/kg.

**Q.** And the ED35 [2]?
**A.** The ED35 was 22.5 mg/kg.

**Q.** And the TD50 (in vivo)?
**A.** The TD50 was 71 mg/kg.

**Q.** And the LD50 at 336 h [3]?
**A.** The LD50 at 336 h was 1170 mg/kg.
